For series [1], the species on record is Rattus norvegicus. In words: Ratio of pA2 for alpha-1b adrenergic receptor in SPF rat spleen to pA2 for alpha-1a adrenergic receptor in SPF rat prostatic vas deferens. The format is tissue-based.
In series [2] the target is T1, Alpha-1A adrenergic receptor (Rattus norvegicus, UniProt P43140).
T1 sequence (P43140 whole entry): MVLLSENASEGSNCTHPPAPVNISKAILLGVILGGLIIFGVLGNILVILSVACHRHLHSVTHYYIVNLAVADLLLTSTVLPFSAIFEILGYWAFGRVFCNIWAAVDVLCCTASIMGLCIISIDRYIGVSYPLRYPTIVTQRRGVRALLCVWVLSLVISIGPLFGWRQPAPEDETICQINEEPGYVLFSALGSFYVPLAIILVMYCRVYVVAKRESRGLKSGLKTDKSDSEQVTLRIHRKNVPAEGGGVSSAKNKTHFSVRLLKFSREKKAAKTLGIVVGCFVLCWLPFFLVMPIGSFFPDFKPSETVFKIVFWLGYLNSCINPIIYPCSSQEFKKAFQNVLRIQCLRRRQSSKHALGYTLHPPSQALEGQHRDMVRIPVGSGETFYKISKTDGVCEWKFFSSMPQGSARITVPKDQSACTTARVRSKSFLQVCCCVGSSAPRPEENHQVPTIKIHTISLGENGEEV
As to the kind of experiment: Antagonist activity at alpha-1a adrenergic receptor in SPF rat prostatic vas deferens assessed as inhibition of noradrenaline-induced contractions. The note with it: read-out: pA2 (converted).

Series [3] deals with Rattus norvegicus. As to the kind of experiment: Effect on heart rate in spontaneously hypertensive rat assessed as heart rate level at 80 mg/kg, po measured after 4 hrs by tail-cuff method (reference value: 410.80 +/- 17.4 bpm). The note with it: in vivo. It counts as ADME, organism-based.
For series [4], the system named is Rattus norvegicus. In words: Antihypertensive activity in spontaneously hypertensive rat assessed as diastolic arterial pressure at 80 mg/kg, po measured after 6 hrs by tail-cuff method (reference value: 137.54 +/- 9.2 mmHg). The format is functional.
The test system of series [5] is Rattus norvegicus. In words: Effect on heart rate in spontaneously hypertensive rat assessed as heart rate level at 80 mg/kg, po measured after 1 hr by tail-cuff method (reference value: 415.25 +/- 14.7 bpm). The format is ADME, organism-based. The note with it: in vivo.
Series [6] relates to Rattus norvegicus. As to the kind of experiment: Antihypertensive activity in spontaneously hypertensive rat assessed as systolic arterial pressure at 80 mg/kg, po measured after 2 hrs by tail-cuff method (reference value: 189.20 +/- 12.31 mmHg). It counts as functional.
Series [7] has as its system Rattus norvegicus. As to the kind of experiment: Antihypertensive activity in spontaneously hypertensive rat assessed as diastolic arterial pressure at 80 mg/kg, po measured after 0 hrs by tail-cuff method (reference value: 149.50 +/- 5.4 mmHg). The format is functional.
The test system of series [8] is Rattus norvegicus. As to the kind of experiment: Antihypertensive activity in spontaneously hypertensive rat assessed as systolic arterial pressure at 80 mg/kg, po measured after 1 hr by tail-cuff method (reference value: 185.35 +/- 10.30 mmHg). The format is functional.
The species named for series [9] is Rattus norvegicus. In words: Ratio of pA2 for alpha-1b adrenergic receptor in SPF rat spleen to pA2 for alpha-1D adrenergic receptor in SPF rat vas thoracic aorta.
Series [10] has as its system Rattus norvegicus. As to the kind of experiment: Antihypertensive activity in spontaneously hypertensive rat assessed as systolic arterial pressure at 80 mg/kg, po measured after 0 hrs by tail-cuff method (reference value: 186.10 +/- 4.55 mmHg). It counts as functional.
Series [11] has as its system Rattus norvegicus. As to the kind of experiment: Antihypertensive activity in spontaneously hypertensive rat assessed as mean arterial pressure at 80 mg/kg, po measured after 4 hrs by tail-cuff method (reference value: 150.30 +/- 9.26 mmHg). It counts as functional.
The subject of series [12] is Rattus norvegicus. In words: Antihypertensive activity in spontaneously hypertensive rat assessed as systolic arterial pressure at 80 mg/kg, po measured after 6 hrs by tail-cuff method (reference value: 179.36 +/- 18.33 mmHg). It counts as functional.
For series [13], the system named is Rattus norvegicus. As to the kind of experiment: Antihypertensive activity in spontaneously hypertensive rat assessed as mean arterial pressure at 80 mg/kg, po measured after 8 hrs by tail-cuff method (reference value: 153.55 +/- 11.43 mmHg). The format is functional.
Series [14] relates to Rattus norvegicus. As to the kind of experiment: Antihypertensive activity in spontaneously hypertensive rat assessed as reduction in mean arterial pressure at 80 mg/kg, po measured after 4 hrs by tail-cuff method. The format is functional. Details: scale not given: the % may be the effect or the level left.

The results in this text go back to ChEMBL document CHEMBL4340549, “Design, synthesis and biological evaluation of isochroman-4-one hybrids bearing piperazine moiety as antihypertensive agent candidates” (Bioorg Med Chem, 2019).

Regarding `COc1cc2c(cc1OCC(O)CN1CCN(C(=O)C3CCCO3)CC1)C(=O)C(C)OC2` (centres undefined), the Ratio in [1] is 6.3; in series [9], 5.6. Moreover, the Kb in series [2] was 0.224 µM. Also, the Activity in series [3] is 405.15 bpm; in [4], 132.51 mmHg; in [5] it was 409.3 bpm; in series [6] it was 150.8 mmHg; in [7], 156.23 mmHg; in series [8], 169.21 mmHg. For the same compound, the Activity in series [10] is listed as 187.64 mmHg; in series [11], 127.12 mmHg; in [12], 157.46 mmHg; in [13], 151.39 mmHg; in [14], 23.7%.
